# “Also recorded” adds a separate entry of the source.
# What was measured:
# [1] = tested on: lymph nodes; assay: Primate lymphatic MRI study (DCE MRI after subcutaneous injection); format: in vivo, M. Nemestrina; conditions: animals injected subcutaneously
# Method: In vivo imaging of the lymph nodes using Gd-DTPA-lipid nanoparticles for dynamic contrast enhanced (DCE) MRI was performed in a 1.5T MR scanner. The pigtailed macaque (M. Nemestrina) was anesthetized with inhaled isofluorane (1-2%) and closely monitored during the experiments. A pre-contrast image of the primate was recorded to determine proper lymph node location and fine-tune the imaging parameters. The animal was removed from the MR scanner and injected subcutaneously at four sites. […] The total dose of Gd is estimated to be 24.4 μmol/kg for the primate studies.
# [2] = clinical use; cited from earlier work
# [3] = tested on: vasculature; assay: Rat vascular MRI study (DCE MRI after intravenous injection); format: in vivo; conditions: 0.01 mmol/kg nanoparticles or 0.05 mmol/kg OMNISCAN, 5 min and 14-15 min
# Method: In vivo imaging of the rat using Gd-DTPA-lipid nanoparticles for dynamic contrast enhanced (DCE) MRI was performed in a 3.0T MR scanner. The rats (SD) was anesthetized with inhaled isofluorane (1-2%) and closely monitored during the experiments. A pre-contrast image of the rat was recorded to determine proper location, orientation and fine-tune the imaging parameters. The animal was removed from the MR scanner and injected with […] of indicated Gd contrast media through femoral vein. The images were recorded on a Signa […] Scanner using a surface coil 12×12 inch.
compound,measurement,setting,value
"CNC(=O)CN(CCN(CCN(CC(=O)[O-])CC(=O)NC)CC(=O)[O-])CC(=O)[O-].[Gd+3] [OMNISCAN, Gd-DTPA-BMA]",Time within which signal in lymphatic system dissipates,[1],≤ 20 min
same,Clearance time,[2],cleared within a few minutes
same,Localization of contrast enhancement,[3],"diffused throughout and does not localize in the vasculature, well-perfused tissues, or the lymph nodes; also recorded: diffuse contrast localization with no vascular definition"
